Reference: US6417180B1, “Zinc finger-reactive antimicrobial compounds” (priority 1998, dated 2002)

Assays:
B. subtilis pol III [1] = target: T1, B. subtilis pol III (Bacillus subtilis, UniProt P13267); test: 65Zn release from labeled pol III by MMTS (Sephadex G-25 separation); format: biochemical; settings: 60 minutes, 0° C.
T1 construct: the so-called wild-type pol III, was identical to the native enzyme found in B. subtilis; made in house; host or cells: E. coli AR120, plasmid pKC30/polC
Protocol: Pol III was labeled by growing bacteria transformed with the above-described pol III expression plasmids in the presence of ^65Zn. LB expression medium was first depleted of divalent trace metals by mixing the medium with 0.3 volume of Chelex-Na (Bio-Rad) for 24 hours at 0° C. The depleted medium was then supplemented with 0.1 mM MgCl2 to support a level of E. coli growth compatible with pol III expression. E. coli AR120 transformed with the pKC30/polC vector was grown at 30° C. in this magnesium-supplemented medium. When the culture reached an absorbance of 0.5 ([…], 1 cm path length), 10 ml of the culture was added to one liter of the zinc-depleted, magnesium-supplemented medium, which further included [^65Zn]Cl2 (New England Nuclear; specific activity of 2.7 mCi/μmole) to a radioactivity level of 1.1 μCi/ml medium. Incubation was continued until the culture reached an absorbance of 0.75. […]
To remove non-specifically bound ^65Zn and exogenous thiols, the pol III was dialyzed as described in Example 1 above, and the labeled protein was further dialyzed with HNE buffer (10 mM HEPES [pH 7.6], 100 mM NaCl, and 0.1 mM EDTA) to remove exogenous thiols. […] The fraction eluted with each step was analyzed by liquid scintillation counting to determine the amount of protein-bound ^65Zn (void volume) and the amount of free ^65Zn (included volume).

B. subtilis pol III [2] = target: T1, B. subtilis pol III; test: Polymerase activity of pol III after treatment with zinc-removing compound; format: biochemical; settings: 0.2 mM MMTS, one hour
Protocol: (§1) Polymerase activity was determined as described in Barnes et al., Meth. Enzymol., 262:35-42, 1995, using activated calf thymus DNA (Worthington) as template and primer and [^3H]dTTP as the substrate. One unit of polymerase activity was defined as the activity which catalyzes the incorporation of one nanomole of [^3H]dTMP in 10 minutes at 30° C. For determination of the KM of the polymerase for DNA, the concentration of activated calf thymus DNA was varied during assay from 0-0.8 mg/ml. For determination of the KM for dGTP, incorporation of [^3H] dTMP was followed as a function of dGTP concentration (0-0.5 mM), and the values for incorporation were corrected for dGTP-independent, background incorporation.
(§2) 0.2 nanomoles of pol III was mixed in 0.1 ml of HNE buffer (10 mM HEPES, 100 mM NaCl, and 10% glycerol [pH 7.6]) containing 0.3 mM Compound 20, and the mixture was incubated at 25° C. for one hour. The pol III was removed from Compound 20 by passage through a Sephadex G-25 spin column, and the enzyme assayed for polymerase activity and for its content of radioactive zinc (see procedures described above).
Ejection of Zinc by Treatment of Coordinating Thiolates with MMTS. The compound MMTS is described in Example 2 above. […]

B. subtilis pol III [3] = target: T1, B. subtilis pol III; test: Radioactive zinc content of 65Zn-labeled pol III after treatment with zinc-removing compound; format: biochemical; settings: 0.2 mM MMTS, one hour
Protocol: as §2
Ejection of Zinc by Treatment of Coordinating Thiolates with MMTS. The compound MMTS is described in Example 2 above. 0.2 nanomoles of ^65Zn-labeled B. subtilis pol III was incubated with HNE buffer with or without 0.2 mM MMTS for one hour, and the samples assayed as described for the pol III treatment with Compound 20.

B. subtilis pol III [4] = target: T1, B. subtilis pol III; test: Reconstitution of zinc-deficient inactive polymerase with ZnCl2/DTT; format: biochemical; settings: pol III inactivated by MMTS; 0.01 mM ZnCl2 and 0.01 mM DTT, 25° C., 12 hours
Protocol: At 30 minute intervals, samples were removed and assayed for pol activity.

[5] = system: methicillin-sensitive S. aureus (ATCC No. 29213); test: Thigh infection in neutropenic ICR/Swiss mice (Example 10); format: in vivo; settings: 40 mg/kg i.v. at 2, 6, 12, 18 hours post-infection; 24 hours after infection; 100× diluted homogenate; saline controls about 500
Protocol: Before infection with test bacteria, six six-week old pathogen-free ICR/Swiss mice are rendered neutropenic (less than 100 neutrophils per milliliter of blood) by intraperitoneal injection of two doses of cyclophosphamide. The first injection is made at 150 mg/kg four days before bacterial infection, and the second injection is made at 100 mg/kg one day before bacterial infection. Neutropenia is induced so that a wide variety of bacteria can be used for the subsequent infection.
Bacterial infection for each mouse is performed by inoculating 10^6 cfu of methicillin-sensitive S. aureus (ATCC No. 29213) in 100 μl of media into the right thigh muscle. The compound and control mixtures are administered intravenously into the tail vein of the animal at 2, 6, 12, and 18 hours post-infection. Two mice received 50 μl of a negative control mixture of physiological saline at each time point. Another pair of mice received a positive control mixture of 40 mg/kg body weight vancomycin in saline at each time point. The last two mice received 40 mg/kg body weight of the candidate compound in saline at each time point.
At 24 hours after infection, all mice are sacrificed, and the right thigh muscle of each mice removed. […] After incubating at 37° C. for 24 hours, the number of colonies on each plate is counted. […]

S. aureus = settings: 40 mg/kg intravenously every four hours; cited from earlier work
[6] = target: T2, Wildtype B. subtilis pol III (Bacillus subtilis, UniProt P13267); test: TMAU sensitivity of polymerase activity, wild-type enzyme; format: biochemical
T2 construct: made in house; host or cells: E. coli SG101, plasmid pSGA04
Protocol: as §1
Tagged wild-type and mutant forms of pol III were obtained at greater than 95% homogeneity using the procedure of Example 1 above. The proteins were then subjected to EDTA-based dialysis, and analyzed for zinc content as described in Example 1.
(§3) Each of the five purified mutant enzymes of Table I was analyzed directly, in its native, undialyzed form, to assess the impact of the respective mutation on (1) exonuclease and polymerase activity; (2) affinity for exonuclease and polymerase substrates; and (3) sensitivity of the polymerase activity to TMAU, a dGTP analog which inhibits the pol III of Gram-positive eubacteria (Wright et al., Pharmac. Therap., 47:447-497, 1990).

[7] = target: T3, H909A B. subtilis pol III (Bacillus subtilis, UniProt P13267, H909A); test: TMAU sensitivity of polymerase activity, H909A mutant; format: biochemical; settings: H909A enzyme
T3 construct: The H909A enzyme, although expressed as a full-length protein, was not readily produced in an amount sufficient for metal analysis; made in house; host or cells: E. coli SG101, plasmid pSGA04
Protocol: as §1
(§4) An oligonucleotide-based system (Altered Sites, Promega) was used to introduce the mutations into the segment of polC encoding the putative zinc finger. […]
as §3

[8] = target: T4, C915A B. subtilis pol III (Bacillus subtilis, UniProt P13267, C915A); test: TMAU sensitivity of polymerase activity, C915A mutant; format: biochemical; settings: C915A enzyme
T4 construct: Each of the three full-length mutants (C912A, C915A, and C940A); made in house; host or cells: E. coli SG101, plasmid pSGA04
Protocol: as §1, §4, §3

[9] = target: T5, C940A B. subtilis pol III (Bacillus subtilis, UniProt P13267, C940A); test: TMAU sensitivity of polymerase activity, C940A mutant; format: biochemical; settings: C940A enzyme
T5 construct: Each of the three full-length mutants (C912A, C915A, and C940A); made in house; host or cells: E. coli SG101, plasmid pSGA04
Protocol: as §1, §4, §3

## CSS(C)(=O)=O [MMTS, methylmethanethio-sulfonate]
B. subtilis pol III [1]; 0.01 mM MMTS
  65Zn label released from pol III: about 50%
B. subtilis pol III [1]; three higher concentrations (0.03, 0.10, 0.3 mM MMTS)
  65Zn label released from pol III: greater than 95%
B. subtilis pol III [2]
  pol III activity relative to control: less than 1 % of the control
B. subtilis pol III [3]
  radioactive zinc content relative to control: less than 2 % of the control
B. subtilis pol III [4]
  reactivation of pol activity after treatment: No reactivation

## CN[C@H](CC(C)C)C(=O)N[C@H]1C(=O)N[C@@H](CC(N)=O)C(=O)N[C@H]2C(=O)N[C@H]3C(=O)N[C@H](C(=O)N[C@H](C(=O)O)c4cc(O)cc(O)c4-c4cc3ccc4O)[C@H](O)c3ccc(c(Cl)c3)Oc3cc2cc(c3O[C@@H]2O[C@H](CO)[C@@H](O)[C@H](O)[C@H]2O[C@H]2C[C@](C)(N)[C@H](O)[C@H](C)O2)Oc2ccc(cc2Cl)[C@H]1O [vancomycin]
[5]
  colonies from thigh muscle homogenate: about 40 colonies on each plate
S. aureus
  reduction in S. aureus proliferation compared with control thighs: two to four

## O=c1cc(Nc2ccc3c(c2)CCC3)[nH]c(=O)[nH]1 [TMAU]
[6]
  IC50: 4.1 µM
[7]
  IC50: 4 µM
[8]
  IC50: 2.9 µM
[9]
  IC50: 4 µM
